Experimental data published in patent US4499083A, “3-O-Demethyl derivatives of the istamycin B series of compounds” (Zaidan Hojin Biseibutsu Kagaku Kenkyu Kai, priority 1980, dated 1985).
Converted amounts (≈) assume the structure as drawn. Read-outs that look alike come from different tables or passages of the source.

Key:
[1] = system: mice; assay: Acute toxicity by intravenous injection in mice
[2] = system: Proteus vulgaris OX19; assay: Antibacterial spectrum, MIC by serial dilution on nutrient agar; type: cell-based; details: 37° C., 17 hours, read-out: Minimum inhibitory concentration
[3] = system: Staphylococcus aureus Smith; assay: as above; type: cell-based; details: read-out: Minimum inhibitory concentration
[4] = system: Serratia sp. SOU; assay: as above; type: cell-based; details: 37° C., 17 hours, read-out: Minimum inhibitory concentration
[5] = system: Salmonella enteritidis 1891; assay: as above; type: cell-based; details: Salmonella enterica, 37° C., 17 hours, read-out: Minimum inhibitory concentration
[6] = system: Gram-negative and Gram-positive bacteria; assay: Antibacterial activity, overall statement; type: cell-based
Method: (§1) The antibacterial spectra of 3-O-demethylistamycin B.sesquicarbonate and 3-O-demethyl-2"-N-formimidoylistamycin B.disulphate.trihydrate are shown in Table 2, along with that of istamycin B for comparison purposes.
(§2) *^1 Determined according to a standard serial dilution method on
(§3) nutrient agar plates which were incubated at 37° C. for 17 hours.

[7] = system: Escherichia coli W677; assay: Antibacterial spectrum, MIC by serial dilution on nutrient agar; type: cell-based; details: read-out: Minimum inhibitory concentration
[8] = system: Pseudomonas aeruginosa No. 12; assay: as above; type: cell-based; details: 37° C., 17 hours, read-out: Minimum inhibitory concentration
[9] = system: Providencia sp. 2991; assay: as above; type: cell-based; details: 37° C., 17 hours, read-out: Minimum inhibitory concentration
[10] = system: Pseudomonas aeruginosa 99; assay: as above; type: cell-based; details: 37° C., 17 hours, read-out: Minimum inhibitory concentration
[11] = system: Escherichia coli K-12 R388; assay: as above; type: cell-based; details: K12R388, 17 h, read-out: Minimum inhibitory concentration
[12] = system: Shigella sonnei JS11746; assay: as above; type: cell-based; details: 37° C., 17 hours, read-out: Minimum inhibitory concentration
Method: as §1
(§4) Minimum inhibitory concentrations (mcg/ml)*^1
as §2, §3

[13] = system: Escherichia coli K-12 C600 R135; assay: as above; type: cell-based; details: K12C600R135, 37° C., 17 hours, read-out: Minimum inhibitory concentration
Method: as §1, §4, §2, §3

[14] = system: Escherichia coli K-12 ML1629; assay: as above; type: cell-based; details: K12ML1629, 37° C., 17 hours, read-out: Minimum inhibitory concentration
Method: as §1, §4, §2, §3

[15] = system: Klebsiella pneumoniae 22#3038; assay: as above; type: cell-based; details: 37° C., 17 hours, read-out: Minimum inhibitory concentration
Method: as §1, §4, §2, §3

[16] = system: Shigella flexneri 4B JS11811; assay: as above; type: cell-based; details: 4BJS11811, 37° C., 17 hours, read-out: Minimum inhibitory concentration
Method: as §1, §4, §2, §3

[17] = system: Escherichia coli K-12 ML1630; assay: as above; type: cell-based; details: K12ML1630, 37° C., 17 hours, read-out: Minimum inhibitory concentration
Method: as §1, §4, §2, §3

[18] = system: Providencia sp. Pv16; assay: as above; type: cell-based; details: 37° C., 17 hours, read-out: Minimum inhibitory concentration
[19] = system: Pseudomonas maltophilia GN 907; assay: as above; type: cell-based; details: Stenotrophomonas maltophilia, GN907, 37° C., 17 hours, read-out: Minimum inhibitory concentration
[20] = system: Corynebacterium bovis 1810; assay: as above; type: cell-based; details: read-out: Minimum inhibitory concentration
[21] = system: Escherichia coli K-12 J5R11-2; assay: as above; type: cell-based; details: read-out: Minimum inhibitory concentration
[22] = in vivo; details: mouse, iv
[23] = system: resistant bacteria; assay: Antibacterial activity against resistant bacteria; type: cell-based
[24] = system: Pseudomonas aeruginosa; assay: Antibacterial activity against Pseudomonas aeruginosa; type: cell-based
[25] = system: Gram-negative and Gram-positive bacteria; details: relative to istamycin A; earlier work; cited from earlier work
[26] = Staphylococcus aureus Smith, nutrient agar, 37° C., 17 hours
[27] = Escherichia coli W677, nutrient agar, 37° C., 17 hours
[28] = Corynebacterium bovis 1810, nutrient agar, 37° C., 17 hours
[29] = K12J5R112, Escherichia coli K-12 J5R11-2, nutrient agar, 37° C., 17 hours
[30] = listed as 3-O-demethylistamycin B

Row | Compound | toxicity (in words) [1] | MIC [2] [µg/mL] | MIC [3, 26] [µg/mL] | MIC [4] [µg/mL] | MIC [5] [µg/mL] | antibacterial activity (in words) [6] | MIC [7, 27] [µg/mL] | MIC [8] [µg/mL] | MIC [9] [µg/mL] | MIC [10] [µg/mL] | MIC [11] [µg/mL] | MIC [12] [µg/mL] | MIC [13] [µg/mL] | MIC [14] [µg/mL] | MIC [15] [µg/mL] | MIC [16] [µg/mL] | MIC [17] [µg/mL] | MIC [18] [µg/mL] | MIC [19] [µg/mL] | MIC [20, 28] [µg/mL] | other results
1 | CNCC1CCC(N)C(OC2C(N)CC(O)C(N(C)C(=O)CNC=N)C2O)O1 (centres unmarked) [3-O-Demethyl-2"-N-formimidoylistamycin B] | low toxicity to animals | 0.39 (≈ 0.969 µM) | < 0.2 | > 100 | 1.56 (≈ 3.88 µM) | high antibacterial activity against a wide variety of Gram-negative and Gram-positive bacteria | 0.78 (≈ 1.94 µM) | 12.5 (≈ 31.1 µM) | 12.5 (≈ 31.1 µM) | 100 (≈ 248 µM) | 1.56 (≈ 3.88 µM) | 3.13 (≈ 7.78 µM) | 12.5 (≈ 31.1 µM) | 1.56 (≈ 3.88 µM) | 3.13 (≈ 7.78 µM) | 3.13 (≈ 7.78 µM) | 1.56 (≈ 3.88 µM) | 25 (≈ 62.1 µM) | > 100 | 0.78 (≈ 1.94 µM) | MIC [21, 29]: 1.56 µg/mL (≈ 3.88 µM); MTD [22]: 160 mg/kg
2 | CNCC1CCC(N)C(OC2C(N)CC(O)C(N(C)C(=O)CN)C2O)O1 (centres unmarked) [3-O-Demethylistamycin B] | low toxicity to animals | 0.78 (≈ 2.08 µM) | – | 25 (≈ 66.6 µM) | 3.13 (≈ 8.34 µM) | high antibacterial activity | – | 12.5 (≈ 33.3 µM) | 12.5 (≈ 33.3 µM) | 25 (≈ 66.6 µM) | 1.56 (≈ 4.15 µM) | 6.25 (≈ 16.6 µM) | 6.25 (≈ 16.6 µM) | 3.13 (≈ 8.34 µM) | 6.25 (≈ 16.6 µM) | 6.25 (≈ 16.6 µM) | 3.13 (≈ 8.34 µM) | 25 (≈ 66.6 µM) | > 100 | – | toxicity (in words) [1, 30]: low toxicity; MIC ([3]; Staphylococcus aureus, 17 h): < 0.2 µg/mL; effectiveness against a variety of resistant bacteria (in words) [23]: effective against not only Pseudomonas aeruginosa but also a variety of resistant bacteria; antibacterial activity (in words) [6, 30]: high antibacterial activity against a wide variety of Gram-negative and Gram-positive bacteria; MIC ([7]; Escherichia coli, W677, 17 h): 1.56 µg/mL (≈ 4.15 µM); MIC ([20]; Corynebacterium bovis, 1810, 17 h): 1.56 µg/mL (≈ 4.15 µM); MIC ([21]; Escherichia coli, K12J5R112, 17 h): 1.56 µg/mL (≈ 4.15 µM); MTD [22]: 160 mg/kg; effectiveness against Pseudomonas aeruginosa (in words) [24]: effective against not only Pseudomonas aeruginosa
3 | CNCC1CCC(N)C(OC2C(N)CC(OC)C(N(C)C(=O)CN)C2O)O1 (centres unmarked) [Istamycin B, istamycin B] | – | 0.39 (≈ 1 µM) | < 0.2 | 100 (≈ 257 µM) | 1.56 (≈ 4.01 µM) | – | 1.56 (≈ 4.01 µM) | 100 (≈ 257 µM) | 6.25 (≈ 16 µM) | > 100 | 1.56 (≈ 4.01 µM) | 3.13 (≈ 8.04 µM) | 12.5 (≈ 32.1 µM) | 1.56 (≈ 4.01 µM) | 3.13 (≈ 8.04 µM) | 3.13 (≈ 8.04 µM) | 1.56 (≈ 4.01 µM) | 6.25 (≈ 16 µM) | > 100 | 0.78 (≈ 2 µM) | antibacterial activity compared with istamycin A [25]: higher antibacterial activity than istamycin A; MIC [21, 29]: 1.56 µg/mL (≈ 4.01 µM)
